Source: patent US10098897B2, “Methods and materials for reducing development of stenosis of arteriovenous fistulas” (Mayo Foundation for Medical Education and Research, priority 2014, dated 2018)

System: Iex-1
Assay: Iex-1 gene expression by qRT-PCR in hypoxic NIH 3T3 fibroblasts
Type: cell-based, mouse
Source text: To determine the expression of Iex-1 and Vegf-A in vitro, NIH 3T3 cells (ATCC, Manassas, Va.) were used and subjected to hypoxia and normoxia for different lengths of time as described elsewhere (Yang et al., Kidney Int., 85:289-306 (2014) and Janardhanan et al., Kidney Int., 84:338-52 (2013)). Cells were harvested for qRT-PCR analysis.
Cells or tissue were stored in a RNA stabilizing/cell lysis solution (Qiagen, Gaithersburg, Md.) (Yang et al., Kidney Int., 85:289-306 (2014) and Janardhanan et al., Kidney Int., 84:338-52 (2013)). Specimens were homogenized, and total RNA was extracted and isolated via the miRNEasy Mini kit (Qiagen). Culture cells were trypsinized and stored in Qiazol lysis regent and processed using the RNEasy Mini kit.
Gene expression was quantified using qRT-PCR as described elsewhere (Yang et al., Kidney Int., 85:289-306 (2014) and Janardhanan et al., Kidney Int., 84:338-52 (2013)).

C=C1/C(=C\C=C2/CCC[C@]3(C)[C@@H]([C@H](C)CCCC(C)(C)O)CC[C@@H]23)C[C@@H](O)C[C@@H]1O [calcitriol]
average decrease in Iex-1 expression vs. controls (1 μM calcitriol, hypoxic fibroblasts, 24 hours, control PBS alone): 56%
average Iex-1 expression (qRT-PCR) (1 μM calcitriol, hypoxic fibroblasts, 24 hours, control 8.62+1.52): 3.84+2.2
optimal dose of calcitriol required to reduce Iex-1 expression (determined using a dose response curve): 1 µM
